Four compounds from the NIST ThermoML archive (doi:10.1016/j.jct.2009.03.001) can be followed below.

± gives the expanded uncertainty stated by the source.

This data set in a line: molar enthalpy of vaporization or sublimation. The settings on record: 298.15 K; Crystal; drop microcalorimetry.

For `O=[N+]([O-])c1cc(Cl)cc(Cl)c1` [1,3-dichloro-5-nitrobenzene], the molar enthalpy amounted to 19.9 ± 0.717 kcal/mol.

`O=[N+]([O-])c1ccc(Cl)cc1Cl` [1,3-dichloro-4-nitrobenzene]: the molar enthalpy amounted to 21 ± 0.813 kcal/mol.

As for `O=[N+]([O-])c1ccc(Cl)c(Cl)c1` [3,4-dichloro-1-nitrobenzene], the molar enthalpy was found to be 20.5 ± 1.2 kcal/mol.

With `O=[N+]([O-])c1cc(Cl)ccc1Cl` [1,4-dichloro-2-nitrobenzene], the molar enthalpy amounted to 20.9 ± 1.2 kcal/mol.
